Test results as given in patent US20080008734A1, “Reduction of skin irritation caused by biomedical electrodes” (priority 2006, published 2008).

Tests used:
[1] = test system: skin; assay: Stimulation erythema with antioxidant incorporated in the conductive hydrogel adhesive; type: in vivo; details: in UV cured acrylic hydrogel adhesive; this amount gave a very weak adhesive that cohesively failed
Excerpt: In the majority of conductive hydrogel adhesives used in these biomedical electrodes are UV cured acrylics formed by the free radical polymerization of hydrophilic acrylic monomers in water. UV light generates free radicals from photoinitiators, however antioxidants react with these free radicals thereby inhibiting the polymerization of the acrylic monomers. Antioxidants such as MEHQ are used to preserve acrylic monomers until use. […] A few ppm of the very potent antioxidant Astaxathin inhibited polymerization. The greater than 1500 ppm of MEHQ alone that was needed to prevent and/or alleviate stimulation erythema gave a very weak hydrogel adhesive that cohesively failed leaving residue on the skin.

[2] = Stability of SAP in the aqueous environment of hydrogel adhesives; type: physicochemical; details: pH 4.0±0.5 aqueous environment of the hydrogel adhesives
Excerpt: (See U.S. Pat. No. 6,842,636 B2 to Perrault, et al. and U.S. Pat. No. 6,115,625 to Heard et al.).

Compound	amount of MEHQ alone needed to prevent and/or alleviate stimulation erythema [1]	stability over time [2]
COc1ccc(O)cc1 [MEHQ, monomethyl ether of hydroquinone]	greater than 1500 ppm	–
O=C1O[C@H](C(O)CO)C(O)=C1OP(=O)(O)O (some centres unmarked) [SAP, Sodium Ascorbyl Phosphate]	–	not stable over time
